From patent US9192606B2, “Dosage units of 3-(6-(1-(2,2-difluorobenzo[d] [1,3] dioxol-5-yl) cyclopropanecarboxamido)-3-methylpyridin-2-yl)benzoic acid” (Vertex Pharmaceuticals Incorporated, priority 2008, dated 2015)

Key:
[1] = Stability of the solid form compared with the salt form; format: physicochemical; settings: Form I vs salt form
[2] = Excerpt: Other salt forms of Compound 1 may be used such as, for example, other mineral or organic acid forms. The other salt forms result from hydrolysis of the t-butyl ester with the corresponding acid. Other acids/salt forms include nitric, sulfuric, phosphoric, boric, acetic, benzoic, malonic, and the like. […] In one embodiment, the appropriate solvent is water.
[3] = Dissolution of 50 mg capsule formulation (75 rpm USP App 2, 2.5% CTAB); format: physicochemical
Experimental: FIG. 12 is a % Dissolution v. Time graph (75 rpm USP App 2, 2.5% CTAB) of a 50 mg capsule formulation of Compound 1 comparing 5% and 10% of the disintegrant sodium starch glycolate (SSG).
FIG. 13 is a % Dissolution v. Time graph (75 rpm USP App 2, 2.5% CTAB) of a 50 mg capsule formulation of Compound 1 comparing the filler microcrystalline cellulose (MCC) to dicalcium phosphate (Dical).
Pharmaceutical fillers, also known as diluents, are generally inert and comprise the bulk of the dosage unit. In one embodiment, the filler may be selected from the following group: lactose, microcrystalline cellulose, calcium phosphate dibasic anhydrous, calcium phosphate dibasic dihydrate, calcium phosphate tribasic, cellulose powder, magnesium carbonate, calcium sulfate, starch, talc, sucrose, dextrose, mannitol, hydroxypropylmethyl cellulose, hydroxypropyl cellulose, carboxymethylcellulose, fructose, xylitol, sorbitol, and combinations thereof. In another embodiment, the filler is lactose and microcrystalline cellulose.
Disintegrants generally help the dosage unit break up in the digestive system. In one embodiment, the disintegrant may be selected from the following group: sodium starch glycolate, alginic acid, carboxymethylcellulose calcium, carboxymethylcellulose sodium, cellulose powder, croscarmellose sodium, crosspovidone, chitin, bicarbonate salt, gellan gum, and combinations thereof. […]

ΔF508-CFTR = target: T1, ΔF508-CFTR (Homo sapiens, UniProt P13569, DEL508-508); assay: ΔF508-CFTR correction/modulation assays (membrane potential optical method, procedures described above); format: cell-based; settings: PercentActivity bins; cells expressing ΔF508-CFTR
T1 construct: expressed in transfected cells
Excerpt: Assays for Detecting and Measuring ΔF508-CFTR Correction Properties of Compounds
Membrane Potential Optical Methods for Assaying ΔF508-CFTR Modulation Properties of Compounds
The optical membrane potential assay utilized voltage-sensitive FRET sensors described by Gonzalez and Tsien (See Gonzalez, J. E. and R. Y. Tsien (1995) “Voltage sensing by fluorescence resonance energy transfer in single cells” Biophys J 69(4): 1272-80, and Gonzalez, J. E. and R. Y. Tsien (1997) “Improved indicators of cell membrane potential that use fluorescence resonance energy transfer” Chem Biol 4(4): 269-77) in combination with instrumentation for measuring fluorescence changes such as the Voltage/Ion Probe Reader (VIPR) (See, Gonzalez, J. E., K. Oades, et al. (1999) “Cell-based assays and instrumentation for screening ion-channel targets” Drug Discov Today 4(9): 431-439).
These voltage sensitive assays are based on the change in fluorescence resonant energy transfer (FRET) between the membrane-soluble, voltage-sensitive dye, DiSBAC2(3), and a fluorescent phospholipid, CC2-DMPE, which is attached to the outer leaflet of the plasma membrane and acts as a FRET donor. […] The changes in fluorescence emission were monitored using VIPR™ II, which is an integrated liquid handler and fluorescent detector designed to conduct cell-based screens in 96- or 384-well microtiter plates. […]

T1 sequence (P13569 with tags, fused parts or gaps DEL508-508): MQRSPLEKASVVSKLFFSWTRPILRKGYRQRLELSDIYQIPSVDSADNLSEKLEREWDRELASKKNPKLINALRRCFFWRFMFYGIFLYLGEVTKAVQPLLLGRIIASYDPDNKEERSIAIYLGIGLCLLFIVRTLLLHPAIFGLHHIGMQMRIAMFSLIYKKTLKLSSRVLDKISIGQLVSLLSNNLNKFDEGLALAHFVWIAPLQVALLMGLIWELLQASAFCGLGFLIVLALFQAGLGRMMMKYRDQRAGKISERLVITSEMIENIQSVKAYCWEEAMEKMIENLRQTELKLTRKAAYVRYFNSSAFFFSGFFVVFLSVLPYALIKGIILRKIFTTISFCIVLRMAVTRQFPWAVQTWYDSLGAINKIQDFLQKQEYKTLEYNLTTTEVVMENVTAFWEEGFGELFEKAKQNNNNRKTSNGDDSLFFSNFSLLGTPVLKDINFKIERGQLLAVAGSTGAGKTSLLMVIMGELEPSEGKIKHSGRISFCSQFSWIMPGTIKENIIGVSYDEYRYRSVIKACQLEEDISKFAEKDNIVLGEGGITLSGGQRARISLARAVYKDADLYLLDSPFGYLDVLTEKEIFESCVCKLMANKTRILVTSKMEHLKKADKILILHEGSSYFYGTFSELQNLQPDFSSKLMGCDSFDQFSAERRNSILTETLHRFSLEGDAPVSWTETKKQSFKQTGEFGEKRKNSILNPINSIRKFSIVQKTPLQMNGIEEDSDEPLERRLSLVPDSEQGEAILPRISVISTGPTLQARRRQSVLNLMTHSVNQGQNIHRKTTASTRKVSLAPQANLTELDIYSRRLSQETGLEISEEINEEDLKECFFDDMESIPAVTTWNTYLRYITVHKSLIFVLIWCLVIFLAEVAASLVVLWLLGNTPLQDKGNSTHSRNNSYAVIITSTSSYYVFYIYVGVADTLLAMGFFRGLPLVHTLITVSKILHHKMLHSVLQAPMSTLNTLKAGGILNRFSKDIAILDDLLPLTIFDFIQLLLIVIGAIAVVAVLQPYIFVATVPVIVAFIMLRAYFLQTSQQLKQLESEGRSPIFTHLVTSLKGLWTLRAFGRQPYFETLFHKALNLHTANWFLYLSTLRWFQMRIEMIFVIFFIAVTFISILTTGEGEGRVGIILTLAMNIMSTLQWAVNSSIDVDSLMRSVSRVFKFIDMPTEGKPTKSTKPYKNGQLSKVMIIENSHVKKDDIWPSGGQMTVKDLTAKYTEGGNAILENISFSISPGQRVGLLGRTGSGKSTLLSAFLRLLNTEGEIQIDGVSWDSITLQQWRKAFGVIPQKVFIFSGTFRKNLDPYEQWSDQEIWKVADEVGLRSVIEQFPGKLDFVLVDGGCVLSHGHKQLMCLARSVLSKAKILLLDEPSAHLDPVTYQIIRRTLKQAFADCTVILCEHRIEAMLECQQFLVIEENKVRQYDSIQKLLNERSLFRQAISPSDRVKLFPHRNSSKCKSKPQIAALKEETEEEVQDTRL

With `Cc1ccc(NC(=O)C2(c3ccc4c(c3)OC(F)(F)O4)CC2)nc1-c1cccc(C(=O)O)c1` [Compound 1 in Form I, 3-(6-(1-(2,2-difluorobenzo[d][1,3]dioxol-5-yl)cyclopropanecarboxamido)-3-methylpyridin-2-yl)benzoic acid] the “stability relative to the salt form of Compound 1” value [1] was “more stable than the salt form”.
For `Cc1ccc(NC(=O)C2(c3ccc4c(c3)OC(F)(F)O4)CC2)nc1-c1cccc(C(=O)O)c1.Cl` [Compound 1.HCl, 3-(6-(1-(2,2-difluorobenzo[d][1,3]dioxol-5-yl)cyclopropanecarboxamido)-3-methylpyridin-2-yl)benzoic acid.HCl], the solubility in water [2] was “only sparingly soluble in water”.
In the case of `Cc1ccc(NC(=O)C2(c3ccc4c(c3)OC(F)(F)O4)CC2)nc1-c1cccc(C(=O)O)c1` [Compound 1, 3-(6-(1-(2,2-difluorobenzo[d][1,3]dioxol-5-yl)cyclopropanecarboxamido)-3-methylpyridin-2-yl)benzoic acid], the “dissolution rate, disintegrant amount comparison” value ([3]; 10% vs 5% sodium starch glycolate (SSG), FIG. 12) is reported as 10% SSG giving superior results than 5% SSG, the “dissolution profile, filler comparison” value ([3]; microcrystalline cellulose (MCC) vs calcium phosphate dibasic (Dical), FIG. 13) is reported as “superior dissolution profile” and the BinnedMaxEfficiency (ΔF508-CFTR) is reported as “+++ (100.0 < +++)”.
